Laboratory results published in patent US12135326B2 (priority 2019, dated 2024).
Where “and” joins values, the source holds several entries; their conditions need not be identical. Equal values may be shown once.

What was measured:
WT α-HL nanopore [1] = biological target: T1, WT α-HL nanopore (Staphylococcus aureus, UniProt P09616); format: binding
WT α-HL nanopore [2] = biological target: T1, WT α-HL nanopore; format: binding; remark: listed apart in the source

T1 sequence (P09616 27-319 limits assumed): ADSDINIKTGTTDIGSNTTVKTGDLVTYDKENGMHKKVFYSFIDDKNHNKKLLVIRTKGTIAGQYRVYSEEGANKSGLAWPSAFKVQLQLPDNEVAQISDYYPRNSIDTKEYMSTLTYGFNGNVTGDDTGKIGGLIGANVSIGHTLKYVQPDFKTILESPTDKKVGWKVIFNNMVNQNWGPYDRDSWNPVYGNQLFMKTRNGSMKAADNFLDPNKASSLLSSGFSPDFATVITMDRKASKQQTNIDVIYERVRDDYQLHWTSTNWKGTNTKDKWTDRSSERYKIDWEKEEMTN

Row | Substance | mean value of % F (blockade level % Fb, center value±FWHM) (WT α-HL nanopore [1]) | sensing / translocation through α-HL nanopore by DOP (in words) (WT α-HL nanopore [1]) | 1/τoff (WT α-HL nanopore [1]) | mean Fp (mean blockage depth) (WT α-HL nanopore [1]) | mean τoff (dwell time constant) (WT α-HL nanopore [1]) [s] | Ip (mean blockage depth) (WT α-HL nanopore [2]) | τoff (WT α-HL nanopore [2]) [s]
1 | 5′-GATAGTGAGCCAAATTTAAA-3′ [oligomeric ssDNA] | 0.289±0.175 | able to pass through the α-HL nanopore |  |  |  |  | 
2 | Trimethyl-β-cyclodextrin [TriM-β-CD] |  |  | 2.515 ± 0.440 s⁻¹ and 2.437 ± 0.449 s⁻¹ and 2.953 ± 0.616 s⁻¹ and 3.640 ± 0.330 s⁻¹ | 0.078±0.010 | 0.347 ± 0.067 | 0.065±0.002 | 0.386 ± 0.392
